Like-named read-outs stand apart in the source and are kept apart here.
Assays:
maize elite inbred N46 = assay: Pre-harvest ear injection, then Agrobacterium-mediated transformation, inbred N46; assay type: in vivo; settings: for percent of transformed colonies relative to the no-infusion control (in words): pre-harvest ear injection
Method: (§1) Ears from greenhouse-grown or field-grown maize elite inbreds, P38 and N46, were treated with one of the following agents or combinations of agents at three days after pollination: dicamba, hormone cocktail, 2,4-D (2,4-dichlorophenoxyacetic acid), callus medium, water, ABA, Pluronic F68, proline mix, ACC, AVG, salts cocktail 4, salts cocktail 2 (Gamborg et al. (1968) Exp. Cell Res. 50:151), salts cocktail 1 (Murashige and Skoog (1962) Physiol. Plant. 15:473), salts cocktail 3 (Chu et al. (1975) Scientia Sinic. 18:659), 2,4D+salts cocktail 1, 2,4-D+salts cocktail 3, 2,4-D+dicamba and dicamba+ACC. The solutions were filter sterilized before applying to the ears at a rate of 10 mL/ear. The solutions were applied to the ears by injecting between the silks and husks at three days post pollination. Care was taken not to disrupt the ears.
(§2) Agrobacterium-mediated transformation of maize was also employed. See, U.S. application Ser. No. 08/788,018, herein incorporated by reference.
(§3) The ear injection was conducted as described in Example I. Other synthetic auxins were tested for their effects on the transformation of N46 and P38 maize.
(§4) An endogenous plant growth regulator, abscisic acid (ABA), and other compounds known to influence plant growth were tested for their effects on maize transformation when applied to ears at four days after pollination using the injection method described in Example I. Additionally, the effect of the injection of water was also tested. […] ACC is a product of the reaction catalyzed by ACC synthase and a substrate of the reaction catalyzed by ACC oxidase, the ethylene-forming enzyme. AVG, on the other hand, is an inhibitor of ACC synthase.
Several nitrogen-containing treatments were applied to ears at three days after pollination. The treatments employed are salt formulations that are commonly used in plant tissue culture media including salts cocktail 4, salts cocktail 2, salts cocktail 1 and salts cocktail 3. […]

maize elite inbred P38 [1] = assay: Pre-harvest ear injection, then Agrobacterium-mediated transformation, inbred P38; assay type: in vivo
Method: as §1, §2, §3, §4
Several nitrogen-containing treatments were applied to ears at three days after pollination. The treatments employed are salt formulations that are commonly used in plant tissue culture media including salts cocktail 4, salts cocktail 2, salts cocktail 1 and salts cocktail 3.
Finally, some combination treatments were examined for their effects on the transformation of N46 and P38 maize (Table 7).

maize ears = assay: Lanolin-paste application to ears, then particle bombardment transformation; assay type: in vivo; settings: for 21 Day Callus Response / 42 Day Callus Response / Regenerable Colonies / Plants Transformed: 0.5% in lanolin paste on half an ear, three days after pollination; for Plants Transformed: particle bombardment; for recovery of regenerable colonies and transformed plants (in words): lanolin paste, versus lanolin controls and non-treated control
Source text: Transformation-enhancing compounds were also introduced via lanolin. kLanolin paste was typically applied at a mass of 1 gram per ear. Husks were peeled back, but not removed, silks were removed, and the lanolin mixed with the compound was applied to the pericarp of the developing seed using a spatula. Ears were divided into halves longitudinally: one half would received lanolin with the compound and the other half received only lanolin.
Al media recipes are in the Table 10-18.
The effects of pre-harvest ear treatments of zeatin riboside and 2,4-D on maize transformation were investigated. Both agents were applied to separate ears at three days after pollination in a lanolin paste. The method employed for applying the transformation-enhancing agents of the invention to ears in lanolin paste is described in Example I. Ears were divided into halves longitudinally with one half of the ear receiving lanolin with zeatin riboside or 2,4-D and the other half receiving only lanolin. An additional ear that was not treated was used as a control.

maize elite inbred P38 [2] = tested on: maize elite inbred P38
Method: as §1
(§5) For transformation by particle bombardment, maize ears were harvested at ten days after pollination and surface sterilized in 50% CHLOROX™ laundry bleach plus 0.5% Tween 20 surfactant for 20 minutes, and rinsed two times with sterile water. The immature embryos were excised and placed embryo axis side down (scutellum side up), 25 embryos per plate, on 604 medium, incubated at 28° C. in the dark for three days. Prior to bombardment, all embryos were transferred to plates containing 604 medium and 15% sucrose and then aligned within the 2.5-cm target zone in preparation for bombardment. Al media recipes are in the Table 10-18.
A plasmid vector comprising the coding region of uidA operably linked to a ubiquitin promoter was made. This plasmid DNA plus plasmid DNA containing a BAR selectable marker gene operably linked to the double 35S promoter was precipitated onto 1.1 μm (average diameter) tungsten pellets using a CaCl2 precipitation procedure as follows:
The final mixture was sonicated briefly and allowed to incubate under constant vortexing for 10 minutes. After the precipitation period, the tubes were centrifuged briefly, liquid removed, washed with […] 100% ethanol, and centrifuged for 30 seconds. Again the liquid was removed, and 60 μL 100% ethanol was added to the final tungsten particle pellet. For particle gun bombardment, the tungsten/DNA particles were briefly sonicated and 10 μL spotted onto the center of each macrocarrier and allowed to dry about two minutes before bombardment.
(§6) The sample plates were bombarded at level #4 in a Biorad PDS-1000 Helium gun. All samples received a single shot at 650 PSI, with a total of six aliquots taken from each tube of prepared particles/DNA. Following bombardment the embryos were maintained on 604 medium +15% sucrose for three days in the dark, and then transferred to 604S medium with 3 mg/L bialaphos, maintained for three weeks on 3 mg/L bialaphos, and then transferred to 604J at 5 mg/L bialaphos. Once herbicide-resistant colonies were well established and ready for regeneration, approximately eight weeks after bombardment, the herbicide-resistant colonies were transferred to 288O regeneration medium containing 3 mg/L bialaphos, maintained in the dark or seven days, and then transferred to the light at 28° C. for shoot formation and elongation. Callus response, colony and plant recovery and GUS gene expression were monitored during the course of the experiments.
The effects of injecting into ears three days after pollination 10 mL of a 100 μM of dicamba, an auxin analogue, on maize transformation was investigated.

maize immature embryos = settings: for 21 Day Callus Response / 42 Day Callus Response / Colonies to Plants / Colonies to Regeneration / Colonies with GUS Expression: 100 μM ear pre-treatment
Method: as §5, §6
Prior to bombardment, freshly excised embryos were placed onto either 560P, 601H, or 604 medium and incubated at 28° C. in the dark for three days. Prior to bombardment, all embryos were transferred to 604 with 15% sucrose. […] Colonies were transferred to regeneration medium containing 3 mg/L Bialaphos after 8-9 weeks in culture.

[3] = Table 6, ear injection four days after pollination
[4] = Table 5, ear injection three days after pollination, 10 mL/ear
[5] = 100 μM ear injection three days after pollination, of 385 embryos
[6] = 10 mL of 100 μM injected into ears three days after pollination, of 385 embryos
[7] = initial culture medium 560P, 79 embryos
[8] = initial culture medium 601H, 84 embryos
[9] = initial culture medium 604, 128 embryos

CC1=CC(=O)CC(C)(C)[C@@]1(O)/C=C/C(C)=C\C(=O)O [ABA, abscisic acid]
Number of GUS Positive Colonies (maize elite inbred N46; [3]): 25
Percent Colony Transformation (maize elite inbred N46; [3]): 20%
percent of transformed colonies relative to the no-infusion control (in words) (maize elite inbred N46): largest increase in percent colony transformation above the control
Number of GUS Positive Colonies (maize elite inbred P38 [1]; [3]): 0
Percent Colony Transformation (maize elite inbred P38 [1]; [3]): 0%

O=C(O)COc1ccc(Cl)cc1Cl [2,4-D, 2,4-dichlorophenoxyacetic acid]
Number of GUS Positive Colonies (maize elite inbred N46; [4]): 4
Percent Colony Transformation (maize elite inbred N46; [4]): 2.70%
Number of GUS Positive Colonies (maize elite inbred P38 [1]; [4]): 2
Percent Colony Transformation (maize elite inbred P38 [1]; [4]): 4.20%
percent of transformed colonies relative to the no-infusion control (in words) (maize elite inbred P38 [1]; pre-harvest ear injection): significantly greater percentages of transformed colonies than the control
21 Day Callus Response (maize ears): 15.4%
42 Day Callus Response (maize ears): 12.5%
Regenerable Colonies (maize ears): 1.5%
Plants Transformed (maize ears): 1.5%
recovery of regenerable colonies and transformed plants (in words) (maize ears): Regenerable colonies and transformed maize plants were recovered

C/C(=C\CNc1ncnc2c1ncn2[C@@H]1O[C@H](CO)[C@@H](O)[C@H]1O)CO [Zeatin riboside, zeatin riboside]
21 Day Callus Response (maize ears): 9.4%
42 Day Callus Response (maize ears): 9.4%
Regenerable Colonies (maize ears): 0.6%
Plants Transformed (maize ears): 0.6%
recovery of regenerable colonies and transformed plants (in words) (maize ears): Regenerable colonies and transformed maize plants were recovered

NC1(C(=O)O)CC1 [ACC, aminocyclopropane-1-carboxylic acid]
Number of GUS Positive Colonies (maize elite inbred N46; [3]): 12
Percent Colony Transformation (maize elite inbred N46; [3]): 6.80%
Number of GUS Positive Colonies (maize elite inbred P38 [1]; [3]): 0
Percent Colony Transformation (maize elite inbred P38 [1]; [3]): 0%

COc1c(Cl)ccc(Cl)c1C(=O)O [dicamba]
Colonies Expressing GUS (maize elite inbred P38 [2]; [5]): 8.6%
Colonies to Plants (maize elite inbred P38 [2]; [5]): 4.2%
Colonies to Regeneration (maize elite inbred P38 [2]; [5]): 29.1%
Plants Transformed (maize elite inbred P38 [2]; 100 μM ear injection three days after pollination, particle bombardment, of 385 embryos): 3.11%
colonies that produced escapes (maize elite inbred P38 [2]; 100 μM pre-treatment, of the plants recovered): two
21 Day Callus Response (maize elite inbred P38 [2]; [6]): 37.9%
42 Day Callus Response (maize elite inbred P38 [2]; [6]): 40%
56 Day Callus Response (maize elite inbred P38 [2]; [6]): 32.2%
Type I embryogenic callus response rate versus non pre-treated control (in words) (maize elite inbred P38 [2]; ears pre-treated with 100 μM): higher early in the experiment, and was maintained over the course of the study
21 Day Callus Response (maize immature embryos; [7]): 12.7%(10)
42 Day Callus Response (maize immature embryos; [7]): 24%(19)
Colonies to Plants (maize immature embryos; [7]): 1.3%(1)
Colonies to Regeneration (maize immature embryos; [7]): 2.5%(2)
Colonies with GUS Expression (maize immature embryos; [7]): 2.5%(2)
21 Day Callus Response (maize immature embryos; [8]): 17.9%(16)
42 Day Callus Response (maize immature embryos; [8]): 16.5%(14)
Colonies to Plants (maize immature embryos; [8]): 0%
Colonies to Regeneration (maize immature embryos; [8]): 4.8%(4)
Colonies with GUS Expression (maize immature embryos; [8]): 2.4%(2)
21 Day Callus Response (maize immature embryos; [9]): 23.4%(30)
42 Day Callus Response (maize immature embryos; [9]): 33%(42)
Colonies to Plants (maize immature embryos; [9]): 0%
Colonies to Regeneration (maize immature embryos; [9]): 11.7%(15)
Colonies with GUS Expression (maize immature embryos; [9]): 4.7%(6)
colonies capable of regeneration (maize immature embryos; 100 μM pre-treatment / 560P medium): one
Number of GUS Positive Colonies (maize elite inbred N46; [4]): 89
Percent Colony Transformation (maize elite inbred N46; [4]): 9.50%
percent of transformed colonies relative to the no-infusion control (in words) (maize elite inbred N46): superior transformation results
Number of GUS Positive Colonies (maize elite inbred P38 [1]; [4]): 11
Percent Colony Transformation (maize elite inbred P38 [1]; [4]): 1.10%

Reference: US6444470B1, “Transformation-enhancing compositions and methods of use” (Pioneer Hi-Bred International, Inc., priority 1999, dated 2002)
